Results: patent publication US12324568B2, “Mouthwash to deliver dyes for dental imaging” (BOARD OF SUPERVISORS OF LOUISIANA STATE UNIVERSITY AND …, priority 2020, dated 2025)
Where two headings read alike, the source gives them in different places.

Experiments:
rat molars = assay: ICG-assisted NIR dental imaging with in vivo mouthwash in living rats; design: species or system Sprague Dawley rats; settings: rat model
Method: Self-breed Sprague Dawley rats, including eight postnatal day 31 (P31) and two P21 rats for erupted molars and sixteen P14 rats for unerupted molars, were utilized. To simulate the mouthwash with living rats, 10 μL ICG solution (1 mg/ml) was pipetted into the mouth of two P31 rats in vivo, and the rats were euthanized after 2 minutes. The other two P21 went through the same in vivo mouthwash procedure and euthanized after 1 minute. In addition, the mandibles were dissected from another two P31 rats directly after euthanasia, then washed with 10 μL ICG (1 mg/ml) solution ex vivo for 10 minutes. For the subcutaneous injection, every two P31 rats were euthanized at each time points 10 minutes and 24 hours, for the ICG injection on the back (5 mg/kg body weight). For the unerupted molars, two rats were sacrificed 1 minute after in vivo mouthwash, and the same for the erupted molars. […]
The imaging system is depicted in FIG. 1(A). A 785 nm laser source shined to the mandibles with fiber and filters, a NIR camera received the videos, and videos were recorded by computer. […]
Meanwhile, endoscopic imaging provided clearer morphologies of the first and second molars than wide-field imaging. […] As described in previous work,^29, 30 the intensity-mean difference Dmean_diff (IMD) was used as the image contrast for the quantitative evaluation of the target and background. […]

[1] = system: rat molars (erupted P31, unerupted P14); assay: ICG-assisted NIR dental imaging after subcutaneous injection in rat model; format: in vivo, Sprague Dawley rats
Method: Self-breed Sprague Dawley rats, including eight postnatal day 31 (P31) and two P21 rats for erupted molars and sixteen P14 rats for unerupted molars, were utilized. To simulate the mouthwash with living rats, 10 μL ICG solution (1 mg/ml) was pipetted into the mouth of two P31 rats in vivo, and the rats were euthanized after 2 minutes. The other two P21 went through the same in vivo mouthwash procedure and euthanized after 1 minute. In addition, the mandibles were dissected from another two P31 rats directly after euthanasia, then washed with 10 μL ICG (1 mg/ml) solution ex vivo for 10 minutes. For the subcutaneous injection, every two P31 rats were euthanized at each time points 10 minutes and 24 hours, for the ICG injection on the back (5 mg/kg body weight). For the unerupted molars, two rats were sacrificed 1 minute after in vivo mouthwash, and the same for the erupted molars. To study concentration effect on imaging, 0.1, 0.5, 1, and 5 mg/kg of ICG were injected into eight P14 rats (two rats for each dosage, and euthanized for each concentration 4 hours after injection). For P14 rats to study imaging windows, two rats were euthanized at 10 minutes, 4 hours and 48 hours for posting ICG injection (5 mg/kg) respectively.
The imaging system is depicted in FIG. 1(A). A 785 nm laser source shined to the mandibles with fiber and filters, a NIR camera received the videos, and videos were recorded by computer. The mandibles were then extracted and imaged using ICG-assisted endoscopic NIR dental imaging, as described in previous publications.^29-31 In the endoscopic imaging, an output fiber was connected to the endoscope with a camera.^30 All experiments were approved by the Institutional Animal Care and Use Committee (IACUC) of Louisiana State University (Protocol #16-117) and followed the ethical guidelines of animal care.
Meanwhile, endoscopic imaging provided clearer morphologies of the first and second molars than wide-field imaging. The lingual and occlusal cusps of the molars could be easily distinguished, especially for the mouthwash treatment (FIG. 1(B)). As described in previous work,^29, 30 the intensity-mean difference Dmean_diff (IMD) was used as the image contrast for the quantitative evaluation of the target and background. To further reveal the efficiency of the mouthwash and local injection, a sampling line (yellow lines in FIG. 1) covering both molar regions and the surrounding tissues was used to calculate the image contrast of the molar and surrounding tissues.

[2] = system: rat molars (erupted P31, unerupted P14); settings: rat model, previous work, cited from earlier work

Structure (SMILES): CC1(C)C(/C=C/C=C/C=C/C=C2\N(CCCCS(=O)(=O)O)c3ccc4ccccc4c3C2(C)C)=[N+](CCCCS(=O)(=O)[O-])c2ccc3ccccc3c21 [ICG, indocyanine green]
- time to achieve the same image contrast (rat molars): 1 to 2 min
- visibility of dental structures ([1]; erupted molars (P31 rat), 24 hours after ICG injection): no dental structures could be observed
- visibility of dental structures ([1]; erupted molars (P31 rat), subcutaneous injection, imaging window 10 minutes): clearly observable
- minimal dye dosage to achieve recognizable anatomical imaging ([1]; subcutaneous injection, P14 rats (FIG. 9)): 0.1 mg/kg (body weight)
- visibility of dental structures ([1]; unerupted molars (P14 rats), imaging window 48 hours): could still be observed
- imaging window ([2]; erupted molars): 4 h
- imaging window ([2]; unerupted molar): about 96 hours
